# Test results from ChEMBL document CHEMBL1135107, “Synthesis and evaluation of new antimalarial analogues of quinoline alkaloids derived from Cinchona ledgeriana Moens ex Trimen” (Bioorg Med Chem Lett, 2002).
# pIC50: −log10 of the molar value.
# Experiments:
# Plasmodium falciparum [1] = test: In vitro antimalarial activity against Plasmodium falciparum W2 in human erythrocytes by [3H]hypoxanthine uptake; type: functional, organism-based
# Plasmodium falciparum [2] = test: In vitro inhibition of parasite development of Plasmodium falciparum W2 in human erythrocytes; type: functional, organism-based
Structure (SMILES),pIC50 (Plasmodium falciparum [1]; Plasmodium falciparum),pIC50 (Plasmodium falciparum [2]; Plasmodium falciparum),pIC50 (Plasmodium falciparum [1]),pIC50 (Plasmodium falciparum [2])
C=CCO[C@H](c1ccnc2ccccc12)[C@@H]1C[C@@H]2CC[N@@+]1(Cc1cc(C(C)(C)C)c(OC)c(C(C)(C)C)c1)C[C@@H]2C=C,5.96,6.24,–,–
C=C[C@H]1CN2CC[C@H]1C[C@@H]2[C@@H](O)c1ccnc2ccc(OC)cc12 [QUINIDINE],6.80,8.40,–,–
C=C[C@H]1C[N@+]2(Cc3cc(C(C)(C)C)c(OC)c(C(C)(C)C)c3)CC[C@H]1C[C@H]2[C@H](O)c1ccnc2ccc(OC)cc12,6.42,7.00,–,–
C=C[C@H]1C[N@+]2(Cc3cc(C(C)(C)C)c(OC)c(C(C)(C)C)c3)CC[C@H]1C[C@@H]2[C@@H](O)c1ccnc2ccc(OC)cc12,6.00,6.29,–,–
C=C[C@H]1C[N@+]2(Cc3cc(C(C)(C)C)c(OC)c(C(C)(C)C)c3)CC[C@H]1C[C@H]2[C@H](O)c1ccnc2ccccc12,6.29,6.80,–,–
C=C[C@H]1C[N@+]2(Cc3cc(C(C)(C)C)c(OC)c(C(C)(C)C)c3)CC[C@H]1C[C@@H]2[C@@H](O)c1ccnc2ccccc12 (stereo in doubt; form 1),–,–,6.10,6.28
C=C[C@H]1CN2CC[C@H]1C[C@H]2[C@H](O)c1ccnc2ccc(OC)cc12 [QUININE],6.43,6.92,–,–
C=C[C@H]1C[N@+]2(Cc3cc(C(C)(C)C)c(OC)c(C(C)(C)C)c3)CC[C@H]1C[C@@H]2[C@@H](O)c1ccnc2ccccc12 (stereo in doubt; form 2),–,–,6.44,6.80
C=C[C@H]1CN2CC[C@H]1C[C@H]2[C@H](O)c1ccnc2ccccc12 [CINCHONIDINE],6.42,6.54,–,–
C=C[C@H]1CN2CC[C@H]1C[C@@H]2[C@@H](O)c1ccnc2ccccc12 [CINCHONINE],6.66,7.29,–,–

# Continued, in another order:
pIC50 (Plasmodium falciparum [1]; Plasmodium falciparum),pIC50 (Plasmodium falciparum [2]; Plasmodium falciparum),Structure (SMILES),pIC50 (Plasmodium falciparum [1]),pIC50 (Plasmodium falciparum [2])
6.21,6.82,C=C[C@H]1C[N@+]2(Cc3cc(C(C)(C)C)c(OC)c(C(C)(C)C)c3)CC[C@H]1C[C@H]2[C@H](OCc1ccccc1)c1ccnc2ccc(OC)cc12,–,–
5.92,6.64,C=CCO[C@@H](c1ccnc2ccc(OC)cc12)[C@H]1C[C@@H]2CC[N@@+]1(Cc1cc(C(C)(C)C)c(OC)c(C(C)(C)C)c1)C[C@@H]2C=C,–,–
5.96,6.92,C=C[C@H]1C[N@+]2(Cc3cc(C(C)(C)C)c(OC)c(C(C)(C)C)c3)CC[C@H]1C[C@@H]2[C@@H](OCc1ccccc1)c1ccnc2ccccc12,–,–
6.00,6.39,C=CCO[C@H](c1ccnc2ccc(OC)cc12)[C@@H]1C[C@@H]2CC[N@@+]1(Cc1cc(C(C)(C)C)c(OC)c(C(C)(C)C)c1)C[C@@H]2C=C,–,–
6.39,7.00,C=C[C@H]1C[N@+]2(Cc3cc(C(C)(C)C)c(OC)c(C(C)(C)C)c3)CC[C@H]1C[C@@H]2[C@@H](OCc1ccccc1)c1ccnc2ccc(OC)cc12,–,–
6.28,7.20,C=C[C@H]1C[N@+]2(Cc3cc(C(C)(C)C)c(OC)c(C(C)(C)C)c3)CC[C@H]1C[C@H]2[C@H](OCc1ccccc1)c1ccnc2ccccc12,–,–
